# Assays:
# Type in all cases: physicochemical
# [1] = Loss of 25 μM gacyclidine in polypropylene vials with and without SOLUTOL HS 15; settings: 0.15 M NaCl, 37° C., one or three days
# Method: Some of these solutions also contained 0.1% SOLUTOL® HS 15.
# Although the results after three days of incubation parallel those obtained after one day of incubation at 37° C., the increased loss observed at low pH in the samples incubated for three days presumably reflected losses due to decomposition.
# [2] = Maintenance of gacyclidine in solution (HPLC solution concentration over time); settings: 20° C.
# Method: Gacyclidine was detected using a Surveyor HPLC system (Thermo Electron). A Grace Vydac C8 MASS SPEC column (cat #208MS5210; S/N NE981208-3-7) purchased from The Nest Group (Southboro, Mass.) was employed for these analyses. The chromatographic column was maintained at 30° C. Samples were prepared in 12 mm×32 mm autosampler vials (Thermo Electron, A4954-010) and maintained at 20° C. in the autosampler.
# For maximum accuracy, a ‘full-loop’ injection protocol was employed, in which 80.7 μL was withdrawn from the vial to over-fill a 20 μL injection loop. The entire sample contained in the 20 μL injection loop was applied to the C8 chromatography column. The sample was then eluted at a flow rate of 300 μL/min with a step gradient composed of water containing 0.1% (volume/volume) trifluoroacetic acid (buffer A) and acetonitrile containing 0.1% (volume/volume) trifluoroacetic acid (buffer B). The step gradient consisted of elution with 100% buffer A from 0 to 5 minutes; 80% buffer A-20% buffer B from 5 to 15 minutes; 100% buffer B from 15 to 20 minutes and 100% buffer A from 20 to 25 minutes.
# The column eluant was monitored at 234 nm by use of a Thermo Electron PDA UV detector. […] The presence of gacyclidine was confirmed by connecting the column eluant, after passage through the UV detector, to an AQA mass spectrometer (Thermo Electron).
# An aliquot (10 μL) of these solutions was then added to 10.0 mL of either Ringer's Lactate (pH 6.6), Ringer's Lactate containing 100 μM NaOH (pH 7.5), or 0.1 N HCl (pH 1.0) to give a final drug concentration of 100 μM. Aliquots of these drug solutions were transferred to autosampler vials and maintained at 20° C. until being analyzed by HPLC.
# [3] = Solubility of gacyclidine chloride salt and free base in water / Ringer's solution
# Text: The free base form of gacyclidine is poorly soluble in water and adheres to plastic surfaces.
# [4] = excess free base added to a solution at physiological pH
compound,measurement,setting,value
"CC1CCCCC1(c1cccs1)N1CCCCC1.Cl (centres unmarked) [gacyclidine, 1-(2-methyl-1-thiophen-2-yl-cyclohexyl)-piperidine hydrochloride]",effect of 0.1% SOLUTOL on losses of gacyclidine from solution,[1],no effect
same,pH above which losses of gacyclidine were observed,[1],> 6
same,concentration of gacyclidine,"[2]; DMSO stock 1:1000 (0.1% DMSO), Ringer's Lactate pH 7.5, 100 μM initial, 0-3 hours",97.5 µM
same,concentration of gacyclidine,"[2]; DMSO stock 1:1000, 0.1N HCl (pH 1.0), 100 μM initial, 0-3 hours",100.3 µM
same,concentration of gacyclidine,"[2]; DMSO stock 1:1000, 0.1N HCl (pH 1.0), 100 μM initial, 3-6 hours",100.2 µM
same,concentration of gacyclidine,"[2]; DMSO stock 1:1000, 0.1N HCl (pH 1.0), 100 μM initial, 16-19 hours",100.6 µM
same,concentration of gacyclidine,"[2]; DMSO stock 1:1000, Ringer's Lactate pH 6.6, 100 μM initial, 0-3 hours",96.0 µM
same,concentration of gacyclidine,"[2]; DMSO stock 1:1000, Ringer's Lactate pH 6.6, 100 μM initial, 3-6 hours",94.9 µM
same,concentration of gacyclidine,"[2]; DMSO stock 1:1000, Ringer's Lactate pH 6.6, 100 μM initial, 16-19 hours",91.3 µM
same,concentration of gacyclidine,"[2]; DMSO stock 1:1000, Ringer's Lactate pH 7.5, 100 μM initial, 3-6 hours",90.4 µM
same,concentration of gacyclidine,"[2]; DMSO stock 1:1000, Ringer's Lactate pH 7.5, 100 μM initial, 16-19 hours",79.3 µM
same,concentration of gacyclidine,"[2]; aqueous stock 1:1000, 0.1N HCl (pH 1.0), 100 μM initial, 0-3 hours",99.4 µM
same,concentration of gacyclidine,"[2]; aqueous stock 1:1000, 0.1N HCl (pH 1.0), 100 μM initial, 3-6 hours",99.8 µM
same,concentration of gacyclidine,"[2]; aqueous stock 1:1000, 0.1N HCl (pH 1.0), 100 μM initial, 16-19 hours",100.2 µM
same,concentration of gacyclidine,"[2]; aqueous stock 1:1000, Ringer's Lactate pH 6.6, 100 μM initial, 0-3 hours",95.1 µM
same,concentration of gacyclidine,"[2]; aqueous stock 1:1000, Ringer's Lactate pH 6.6, 100 μM initial, 3-6 hours",92.6 µM
same,concentration of gacyclidine,"[2]; aqueous stock 1:1000, Ringer's Lactate pH 6.6, 100 μM initial, 16-19 hours",87.7 µM
same,concentration of gacyclidine,"[2]; aqueous stock 1:1000, Ringer's Lactate pH 7.5, 100 μM initial, 0-3 hours",88.2 µM
same,concentration of gacyclidine,"[2]; aqueous stock 1:1000, Ringer's Lactate pH 7.5, 100 μM initial, 3-6 hours",72.0 µM
same,concentration of gacyclidine,"[2]; aqueous stock 1:1000, Ringer's Lactate pH 7.5, 100 μM initial, 16-19 hours",59.7 µM
same,pH of solution,"[3]; chloride salt, up to 150 mg/ml in water or unbuffered solution",about 4.4
same,final concentration of dissolved gacyclidine,[3]; [4],≤ 0.02 mg/mL
same,pH of solution,[3]; [4],≤ 7.7
same,solubility,"[3]; pH 4.4, chloride salt of the acid form, water or unbuffered Ringer's solution, read-out: solubility (solutions containing up to)",≤ 150000 µg/mL
same,gacyclidine remaining in solution (HPLC),"[3]; pH 9.5, 0.05 M CAPSO, 0.1 M NaCl, 0.3 mg/mL added, room temperature, 2 days",0.0006 mg/mL
same,solubility thermodynamic,"[3]; saline or isotonic, thermodynamic from solid, free base in Ringer's solution reacting with dissolved carbon dioxide, pH 7.6",~20 µg/mL
